Experimental data from patent publication US11142515B2, “Pyrazolyl-ureas as kinase inhibitors” (RESPIVERT LIMITED, priority 2014, dated 2021).
Blank lines part the entries; values can stand above or below the molecule they belong to.

Key:
[1] = tested on: ICAM-1 expression in BEAS2B cells; test: Poly I:C-induced ICAM-1 expression in BEAS2B cells; type: cell-based; conditions: Homo sapiens, BEAS-2B, read-out: PolyIC/ICAM1 IC50 (BEAS2B)
Experimental: Poly I:C was used in these studies as a simple, RNA virus mimic. Poly I:C-Oligofectamine mixture (2% Oligofectamine±1 μg/mL Poly I:C, 25 μL; Life Technologies and Invivogen Ltd., San Diego, Calif., respectively) was transfected into BEAS2B cells (human bronchial epithelial cells, ATCC). Cells were pre-incubated with final concentrations of test compounds for 2 h and the level of ICAM-1 expression on the cell surface was determined by cell-based ELISA. At a time point 18 h after poly I:C transfection, cells were fixed with 4% formaldehyde in PBS (100 μL) and then endogenous peroxidase was quenched by the addition of washing buffer (100 μL, 0.05% Tween in PBS: PBS-Tween) containing 0.1% sodium azide and 1% hydrogen peroxide. Cells were washed with wash-buffer (3×200 μL). After blocking the wells with 5% milk in PBS-Tween (100 μL) for 1 h, the cells were incubated with anti-human ICAM-1 antibody (50 μL; Cell Signaling Technology, Danvers, Mass.) in 1% BSA PBS overnight at 4° C.
The cells were washed with PBS-Tween (3×200 μL) and incubated with the secondary antibody (100 μL; HRP-conjugated anti-rabbit IgG, Dako Ltd., Glostrup, Denmark). The cells were then incubated with of substrate (50 μL) for 2-20 min, followed by the addition of stop solution (50 μL, 1N H2SO4). The ICAM-1 signal was detected by reading the absorbance at 450 nm against a reference wavelength of 655 nm using a spectrophotometer. The cells ware then washed with PBS-Tween (3×200 μL) and total cell numbers in each well were determined by reading absorbance at 595 nm after Crystal Violet staining (50 μL of a 2% solution in PBS) and elution by 1% SDS solution (100 μL) in PBS. The measured OD 450-655 readings were corrected for cell number by dividing with the OD595 reading in each well. The inhibition of ICAM-1 expression was calculated at each concentration of test compound by comparison with vehicle control.

[2] = tested on: neutrophil accumulation in BALF; test: LPS-induced neutrophil accumulation in mice; type: in vivo, Balb/c mice; conditions: mice; for Neutrophil numbers in BALF / Neutrophil numbers in BALF, % inhibition: 0.2 mg/mL, LPS
Experimental: Non-fasted Balb/c mice were […] by the intra tracheal route with either vehicle, or the test substance at the indicated times (within the range 2-8 h) before stimulation of the inflammatory response by application of an LPS challenge. At T=0, mice were placed into an exposure chamber and exposed to LPS (7.0 mL, 0.5 mg/mL solution in PBS for 30 min). After a further 8 h the animals were anesthetized, their tracheas cannulated and BALF extracted by infusing and then withdrawing from their lungs 1.0 mL of PBS via the tracheal catheter. Total and differential white cell counts in the BALF samples were measured using a Neubaur haemocytometer. Cytospin smears of the BALF samples were prepared by centrifugation at 200 rpm for 5 min at RT and stained using a DiffQuik stain system (Dade Behring). Cells were counted using oil immersion microscopy. Data for neutrophil numbers in BAL are shown as mean±S.E.M. (standard error of the mean). The percentage inhibition of neutrophil accumulation was calculated for each treatment relative to vehicle treatment.

[3] = biological target: T1, p38 MAPKα isoform (MAPK14) (Homo sapiens, UniProt Q16539); test: p38 MAPKα enzyme inhibition (Z-LYTE FRET); type: biochemical; conditions: Table 2A; read-out: IC50 Values for Enzyme Inhibition p38 MAPKα
T1 construct: purchased Life Technologies
T1 sequence (Q16539 whole entry, canonical isoform): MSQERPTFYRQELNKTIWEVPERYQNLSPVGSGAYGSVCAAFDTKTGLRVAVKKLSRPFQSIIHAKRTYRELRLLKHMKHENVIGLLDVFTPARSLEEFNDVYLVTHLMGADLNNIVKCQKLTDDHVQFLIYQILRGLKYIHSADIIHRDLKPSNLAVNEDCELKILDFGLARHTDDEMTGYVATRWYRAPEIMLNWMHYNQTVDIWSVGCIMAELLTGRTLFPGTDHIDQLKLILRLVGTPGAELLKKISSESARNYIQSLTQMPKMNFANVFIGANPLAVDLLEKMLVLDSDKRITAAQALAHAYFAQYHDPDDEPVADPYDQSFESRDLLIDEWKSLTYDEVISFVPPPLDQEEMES
Outline: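 Recombinant human MAPK14 (40 ng/mL stock) was preincubated 2 h at RT with compound (stock dilutions 0.0012-40 μg/mL). The Z-LYTE FRET read-out used a MAPKAP-K2-derived peptide, and protease development for 1 h cleaved only non-phosphorylated peptide. Phosphorylation was calculated from the coumarin/fluorescein emission ratio.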

[4] = tested on: alveolar macrophages and neutrophils in BALF; test: Cigarette smoke model: macrophages and neutrophils in BALF; type: in vivo, A/J mice; conditions: mice; for Cell numbers in BALF, Macrophage / Cell numbers in BALF, Macrophage, % inhibition / Cell numbers in BALF, Neutrophil / Cell numbers in BALF, Neutrophil, % inhibition: tobacco smoke
Experimental: A/J mice (males, 5 weeks old) were exposed to cigarette smoke (4% cigarette smoke, diluted with air) for 30 min/day for 11 days using a Tobacco Smoke Inhalation Experiment System for small animals (Model SIS-CS; Sibata Scientific Technology, Tokyo, Japan). […] At 12 h after the last […], each of the animals was anesthetized, the trachea cannulated and bronchoalveolar lavage fluid (BALF) was collected. The numbers of alveolar macrophages and neutrophils were determined by FACS analysis (EPICS® ALTRA II, Beckman Coulter, Inc., Fullerton, Calif., USA) using anti-mouse MOMA2 antibody (macrophage) or anti-mouse 7/4 antibody (neutrophil). BALF was centrifuged and the supernatant was collected. The level of keratinocyte chemoattractant (KC; CXCL1) in BALF was quantitated using a Quantikine® mouse KC ELISA kit (R&D systems, Inc., Minneapolis, Minn., USA).

PBMCs (mitosis) = test: Cell mitosis assay in PHA-treated PBMCs; type: cell-based, human
Experimental: Peripheral blood mononucleocytes (PBMCs) from healthy subjects were separated from whole blood (Quintiles, London, UK) using a density gradient (Histopaquee-1077, Sigma-Aldrich, Poole, UK). The PBMCs (3 million cells per sample) were subsequently treated with 2% PHA (Sigma-Aldrich, Poole, UK) for 48 h, followed by a 20 h exposure to varying concentrations of test compounds. At 2 h before collection, PBMCs were treated with demecolcine (0.1 μg/mL; Life Technologies, Paisley, UK,) to arrest cells in metaphase.

Compound: Cc1cccc(-n2nc(C(C)(C)C)cc2NC(=O)Nc2ccc(OCc3ccnc(Nc4cnccn4)c3)c3ccccc23)c1 [Example 40]
IC50 [1]: 0.637 µM
IC50 [3]: 0.011 µM

Compound: CC(C)c1ccc(-n2nc(C(C)(C)C)cc2NC(=O)Nc2ccc(OCc3ccnc(Nc4cnccn4)c3)c3ccccc23)cc1 [Example 41]
IC50 [1]: > 1.6 µM
IC50 [3]: 0.189 µM

Compound: CCc1ccc(-n2nc(C(C)(C)C)cc2NC(=O)Nc2ccc(OCc3ccnc(Nc4cnccn4)c3)c3ccccc23)cc1 [Example 42]
IC50 [1]: 0.197 µM
IC50 [3]: 0.015 µM

Compound: CC(C)(C)c1cc(NC(=O)Nc2ccc(OCc3ccnc(Nc4cnccn4)c3)c3ccccc23)n(-c2ccc(Cl)cc2)n1 [Example 45]
IC50 [1]: 1.44 µM
IC50 [3]: 0.12 µM

Compound: COc1ccc(-n2nc(C(C)(C)C)cc2NC(=O)Nc2ccc(OCc3ccnc(Nc4cnccn4)c3)c3ccccc23)cc1Cl [Example 46]
IC50 [1]: 0.212 µM
IC50 [3]: 0.085 µM

Compound: Cc1ccc(-n2nc(C(C)(C)C)cc2NC(=O)Nc2ccc(OCc3ccnc(Nc4cncc(C5CCC5)n4)c3)c3ccccc23)cc1 [Example 47]
IC50 [1]: 0.151 µM
IC50 [3]: 0.087 µM

Compound: CC(C)(C)c1cc(NC(=O)Nc2ccc(OCc3ccnc(Nc4cnccn4)c3)c3ccccc23)n(-c2cccc(Cl)c2)n1 [Example 50]
IC50 [1]: > 1.61 µM
IC50 [3]: 0.022 µM

Compound: Cc1ccc(-n2nc(C(C)(C)C)cc2NC(=O)Nc2ccc(OCc3ccnc(Nc4cnccn4)c3)c3ccccc23)cc1C(F)(F)F [Example 52]
IC50 [1]: > 1.5 µM
IC50 [3]: 0.116 µM

Further molecules by falling IC50 [3], results first:

IC50 [3]: 0.091 µM
Compound: Cc1ccc(-n2nc(C(C)(C)C)cc2NC(=O)Nc2ccc(OCc3ccnc(Nc4cncc(C5CCCC5)n4)c3)c3ccccc23)cc1 [Example 48]
IC50 [1]: 0.0925 µM

IC50 [3]: 0.025 µM
impact on cell division (mitosis) compared with Reference Compound (PBMCs (mitosis)): markedly less activity
Compound: Cc1ccc(-n2nc(C(C)(C)C)cc2NC(=O)Nc2ccc(OCc3ccnc(Nc4cnccn4)c3)c3ccccc23)cc1 [Example 1, 1-(3-(tert-Butyl)-1-(p-tolyl)-1H-pyrazol-5-yl)-3-(4-((2-(pyrazin-2-ylamino)pyridin-4-yl)methoxy)naphthalen-1-yl)urea]
IC50 [1]: 0.0818 µM
Neutrophil numbers in BALF ([2]; pre-dose time 2 hr): 492000 mL⁻¹
Neutrophil numbers in BALF, % inhibition ([2]; pre-dose time 2 hr): 67.8%
Neutrophil numbers in BALF ([2]; pre-dose time 8 hr): 759000 mL⁻¹
Neutrophil numbers in BALF, % inhibition ([2]; pre-dose time 8 hr): 50.3%
LPS-induced neutrophil accumulation (in words) [2]: inhibition
duration of action (time course experiment) [2]: long duration of action
Cell numbers in BALF, Macrophage ([4]; 0.07 μg/mouse): 172700 mL⁻¹
Cell numbers in BALF, Macrophage, % inhibition ([4]; 0.07 μg/mouse): 10.2%
Cell numbers in BALF, Neutrophil ([4]; 0.07 μg/mouse): 94200 mL⁻¹
Cell numbers in BALF, Neutrophil, % inhibition ([4]; 0.07 μg/mouse): 13.7%
Cell numbers in BALF, Macrophage ([4]; 0.7 μg/mouse): 149200 mL⁻¹
Cell numbers in BALF, Macrophage, % inhibition ([4]; 0.7 μg/mouse): 26.5%
Cell numbers in BALF, Neutrophil ([4]; 0.7 μg/mouse): 76600 mL⁻¹
Cell numbers in BALF, Neutrophil, % inhibition ([4]; 0.7 μg/mouse): 33.7%
Cell numbers in BALF, Macrophage ([4]; 7 μg/mouse): 113400 mL⁻¹
Cell numbers in BALF, Macrophage, % inhibition ([4]; 7 μg/mouse): 51.1%
Cell numbers in BALF, Neutrophil ([4]; 7 μg/mouse): 60400 mL⁻¹
Cell numbers in BALF, Neutrophil, % inhibition ([4]; 7 μg/mouse): 52.0%
macrophage and neutrophil accumulation in BALF induced by cigarette smoke (in words) [4]: dose-dependent inhibition
inhibition at 5 µg/mL (PBMCs (mitosis); Homo sapiens, PBMC, 5 μg/mL, PBMC, Table 5A, read-out: Mitosis Assay % Inhibition at 5 μg/mL in PBMC Cells): 29.9%

IC50 [3]: 0.018 µM
Compound: COc1ccc(-n2nc(C(C)(C)C)cc2NC(=O)Nc2ccc(OCc3ccnc(Nc4cnccn4)c3)c3ccccc23)cc1C [Example 39]
IC50 [1]: 0.0466 µM

IC50 [3]: 0.014 µM
Compound: Cc1ccc(-n2nc(C(C)(C)C)cc2NC(=O)Nc2ccc(OCc3ccnc(Nc4cnccn4)c3)c3ccccc23)cc1C [Example 51]
IC50 [1]: 0.281 µM

IC50 [3]: 0.012 µM
Compound: COCCNC(=O)c1cnc(Nc2cc(COc3ccc(NC(=O)Nc4cc(C(C)(C)C)nn4-c4ccc(C)s4)c4ccccc34)ccn2)cn1 [Example 43]
IC50 [1]: > 1.42 µM

IC50 [3]: 0.011 µM
Compound: COCCNC(=O)c1cnc(Nc2cc(COc3ccc(NC(=O)Nc4cc(C(C)(C)C)nn4-c4csc(C)c4)c4ccccc34)ccn2)cn1 [Example 44]
IC50 [1]: 1.15 µM

IC50 [3]: 0.011 µM
Compound: CC(C)(C)c1cc(NC(=O)Nc2ccc(OCc3ccnc(Nc4cnccn4)c3)c3ccccc23)n(-c2cccc(F)c2)n1 [Example 49]
IC50 [1]: 0.475 µM
